Each block holds one compound with its values, some of them ahead of it.
Assays:
[1] = system: salivary TNFα; experiment: Salivary TNFα levels (ELISA) and cachexia symptoms in cachexic cancer patients under oral treatment; type: in vivo, human
From the text: Endogenous TNFα production can be measured by ELISA. The data reported herein used the Peprotech human TNFα kit (catalog 900-T25) following directions of the manufacturer. Alternative ELISA methods, not relying on commercial manufacturers, could be employed. […] This standard curve was used to calculate TNFα production in various organs and in saliva as presented herein.
The stabilization step may involve known methods for stabilizing TNFα, such as those described by Lee et al. (2017), incorporated herein by reference.
The detection step is designed to treat the stabilized saliva sample with an TNFα antibody in such a way as to bind essentially all of the TNFα present in the sample. The detection step may involve an immunoassay, such as an ELISA test based on an antigen-antibody reaction using TNFα as the antigen to be measured. For example, the capture antibody may be a polyclonal antibody specific for TNFα. […] In some embodiments the second TNFα antibody may be a monoclonal antibody, such as a mouse monoclonal antibody. Biotin may then be bound to the monoclonal antibody or to a third IgG antibody to which biotin is bound. The biotin levels are detected by first treating with a streptavidin solution linked with horse radish peroxidase (HRP) followed by treatment with a tetramethylbenzidine solution to detect the HRP by reading the resulting color in a spectrophotometer. An ELISA standard concentration graph of target TNFα may be obtained, for example, by absorbance detection, fluorescence detection, luminescence detection, or electrochemical detection. […] Alternatively, the immunoassay may be performed by a method capable of directly or indirectly detecting TNFα. Examples of such alternative methods include MS (Mass Spectrometry), MS/MS, and liquid chromatography.
The invention can be further understood by reference to the following examples, which are provided by way of illustration and are not meant to be limiting. The examples are of human cancer cases that had become cachexic. The patients had salivary TNFα levels ranging from 405 to 462 pg/ml. The TNFα in these cases was restored to normal levels by treatment with DAS (4,4′-diacetoxy-1,1 biphenyl-3,3′ dicarboxylic acid) or APAC for 10-21 days. […] They also support the fact that complement is required for TNFα production.

[2] = biological target: TNFα (Homo sapiens, UniProt P01375); experiment: Binding of APAC and DAS to TNFα / TNFα peptide; conditions: 0-5 nmol/ml of DAS and 0-175 nmol/ml of TNFα peptide, FIG. 10
Method: (§1) A 12-mer peptide spot array was synthesized on a cellulose membrane using a Semi-automated AutoSpot robot (INTAVIS, USA) covering the 233 amino acid sequence of TNFα. A total of 112 peptides, each shifted by 2 amino acids were synthesized. The TNFα membrane was soaked in 50% methanol in 10 mM PBS (pH7.4) for 2 minutes, then washed twice with PBS. The membrane was then incubated with 1 mM of APAC or DAS in PBS (10 mM, pH7.4) for one hour at 37° C. After washing 3 times with PBS, positive images were captured with a SYPRO Ruby filter for APAC and an Alexa 680 filter for DAS by the Chemidoc MP imaging System (Bio-Rad, USA).
(§2) A strongly positive peptide sequence was chosen for synthesis of a potential inhibitor of TNFα binding. The sequence of this TNFα-A2 peptide was NH3-YLGGVFQLEKGDRLSA-COOH. It was synthesized using a standard peptide Synthesizer (Liberty Blue, CEM Inc, USA) with Wang Resin and Fmoc amino acids (GL Biochem Ltd, Shanghai, CN). After synthesis, the peptide was purified by HPLC on a C18 column (Quadarupole 6110 LC/MS, Agilent Technology, USA) with a flow phase of 0.5% trifluroacetic acid (TFA) in acetonitrile to 0.05% TFA in H2O. The eluted peptide was detected by ultraviolet light (280 nm). The peptide inhibited binding of APAC to TNFα (FIG. 9) and of DAS to TNFα (FIG. 10).

[3] = system: TNFα; experiment: Binding of APAC and DAS to TNFα / TNFα peptide
Method: as §1, §2

Compound: CC(=O)Oc1ccc(-c2ccc(OC(C)=O)c(C(=O)O)c2)cc1C(=O)O [DAS, 4,4′-diacetoxy-1,1 biphenyl-3,3′ dicarboxylic acid]
symptoms of cachexia ([1]; Example 4, peritoneal carcinomatosis patient, DAS 3×100 mg/day, Day 12): subsided
salivary TNFα level ([1]; Example 4, peritoneal carcinomatosis patient, DAS 3×100 mg/day, nine days into treatment (Day 12)): 161 pg/mL
salivary TNFα level ([1]; Example 4, person, stage IV peritoneal carcinomatosis and cachexia, 394 pg/ml Day 0, 406 pg/ml before start, DAS 3×100 mg/day, five days into treatment (Day 8)): 288 pg/mL
increased salivary TNFα levels of cachexic cancer patients ([1]; oral intake): rapidly reduced to normal levels
elevated salivary TNFα over time ([1]; patient with terminal colon cancer, FIG. 14): reversed
binding of DAS to a TNFα peptide as a function of the peptide concentration [2]: linear

Compound: NC(=O)NO [hydroxyurea, reference compound]
salivary TNFα level ([1]; Example 1, terminal leukemia patient, ten days after APAC discontinued (155 pg/ml on Day 20) and hydroxyurea 500 mg×2/day begun): 228 pg/mL

binding of APAC to TNFα in presence of the peptide ([3]; FIG. 9): inhibited
binding of DAS to TNFα in presence of the peptide ([3]; FIG. 10): inhibited
Compound: TNFα-A2 peptide: synthesized TNFα sequence peptide NH3-YLGGVFQLEKGDRLSA-COOH (H-YLGGVFQLEKGDRLSA-OH)
